{"source": "ChEMBL document CHEMBL3352279", "about": "“Synthesis and Structure-Activity Relationship Study of 5a-Carbasugar Analogues of SL0101” (ACS Med Chem Lett, 2015)", "key": {"[1]": {"molecular_target": "Ribosomal protein S6 kinase alpha-3 (Homo sapiens, UniProt P51812)", "sequence (P51812 whole entry)": "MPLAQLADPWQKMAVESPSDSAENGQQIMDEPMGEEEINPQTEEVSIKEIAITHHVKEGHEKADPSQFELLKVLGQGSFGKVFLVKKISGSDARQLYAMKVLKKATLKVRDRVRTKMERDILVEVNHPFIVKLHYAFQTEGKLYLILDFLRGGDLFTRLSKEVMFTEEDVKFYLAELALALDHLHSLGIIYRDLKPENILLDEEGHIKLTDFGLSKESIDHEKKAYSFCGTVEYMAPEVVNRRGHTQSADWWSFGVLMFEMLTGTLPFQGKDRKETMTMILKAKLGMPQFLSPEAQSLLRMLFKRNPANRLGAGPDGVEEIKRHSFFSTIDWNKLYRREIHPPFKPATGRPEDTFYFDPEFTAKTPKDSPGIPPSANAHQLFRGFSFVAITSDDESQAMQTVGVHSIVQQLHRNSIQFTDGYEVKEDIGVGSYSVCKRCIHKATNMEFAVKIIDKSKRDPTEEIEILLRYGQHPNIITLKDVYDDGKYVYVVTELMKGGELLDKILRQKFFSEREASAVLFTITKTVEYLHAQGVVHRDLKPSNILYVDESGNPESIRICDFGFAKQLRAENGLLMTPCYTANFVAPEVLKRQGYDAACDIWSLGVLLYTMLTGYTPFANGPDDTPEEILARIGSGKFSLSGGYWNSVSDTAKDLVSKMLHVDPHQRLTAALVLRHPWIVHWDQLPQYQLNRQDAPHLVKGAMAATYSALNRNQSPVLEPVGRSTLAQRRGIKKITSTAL", "test": "Inhibition of RSK2 (unknown origin) assessed as phosphorylation by Western lightning enhanced chemiluminescent reagent/HRP activity assay"}, "MCF7 [2]": {"test_system": "MCF7", "test": "Effect on phosphorylation motif of tyrosine kinase in human MCF7 cells at 50 uM by immunoblotting analysis", "format": "cell-based"}, "[3]": {"molecular_target": "Ribosomal protein S6 kinase alpha-1 (Homo sapiens) (UniProt Q15418)", "sequence (Q15418 whole entry)": "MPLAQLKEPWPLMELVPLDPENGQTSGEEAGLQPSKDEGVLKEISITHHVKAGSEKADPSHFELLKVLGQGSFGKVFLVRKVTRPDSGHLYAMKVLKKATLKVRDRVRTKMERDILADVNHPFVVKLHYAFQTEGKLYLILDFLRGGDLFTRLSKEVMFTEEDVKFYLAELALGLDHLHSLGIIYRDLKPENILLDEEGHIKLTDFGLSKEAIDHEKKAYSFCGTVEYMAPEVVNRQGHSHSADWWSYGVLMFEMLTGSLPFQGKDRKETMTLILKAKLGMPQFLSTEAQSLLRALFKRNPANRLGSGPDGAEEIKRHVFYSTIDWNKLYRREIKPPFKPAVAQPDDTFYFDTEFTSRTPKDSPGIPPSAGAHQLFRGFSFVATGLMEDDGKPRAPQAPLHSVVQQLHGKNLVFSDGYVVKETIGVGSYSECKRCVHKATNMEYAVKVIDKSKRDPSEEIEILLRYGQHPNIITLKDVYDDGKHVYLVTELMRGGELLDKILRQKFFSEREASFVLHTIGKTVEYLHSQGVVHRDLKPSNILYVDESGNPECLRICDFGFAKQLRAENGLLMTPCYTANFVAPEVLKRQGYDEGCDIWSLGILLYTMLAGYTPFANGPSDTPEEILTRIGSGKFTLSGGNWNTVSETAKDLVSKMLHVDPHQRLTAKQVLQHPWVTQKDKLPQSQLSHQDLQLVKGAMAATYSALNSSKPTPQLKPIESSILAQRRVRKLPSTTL", "test": "Inhibition of RSK in PMA-stimulated human MCF7 cells assessed as decrease in intensity of band at 65 and 27 kDa at 50 uM by immunoblotting analysis", "format": "cell-based"}, "MCF7 [4]": {"test_system": "MCF7", "test": "Antiproliferative activity against human MCF7 cells at 25 uM after 48 hrs by CellTiterGlo assay", "format": "functional", "details": "MCF7, 48 h"}, "MCF7 [5]": {"test_system": "MCF7", "test": "Increase in phosphorylation motif of protein kinase A in human MCF7 cells at 50 uM by immunoblotting analysis", "format": "cell-based"}, "MCF7 [6]": {"test_system": "MCF7", "test": "Reduction in cyclin D1 in PMA-stimulated human MCF7 cells at 50 uM by immunoblotting analysis", "format": "functional, cell-based"}, "[7]": {"molecular_target": "Ribosomal protein S6 kinase alpha-1 (Homo sapiens) (UniProt Q15418)", "test": "Inhibition of RSK in PMA-stimulated human MCF7 cells assessed as increase in phosphorylation of eEF2 at 50 uM by immunoblotting analysis", "format": "cell-based"}, "MCF-10A [8]": {"test_system": "MCF-10A", "test": "Antiproliferative activity against human MCF10A cells at 50 uM after 48 hrs by CellTiterGlo assay", "format": "functional, cell-based"}, "MCF7 [9]": {"test_system": "MCF7", "test": "Antiproliferative activity against human MCF7 cells at 50 uM after 48 hrs by CellTiterGlo assay", "format": "functional, cell-based"}, "MCF-10A [10]": {"test_system": "MCF-10A", "test": "Antiproliferative activity against human MCF10A cells at 25 uM after 48 hrs by CellTiterGlo assay", "format": "functional, cell-based"}, "[11]": {"molecular_target": "Protein kinase C (PKC) (Homo sapiens) (UniProt O94806+P41743+P17252+P05129+Q05655+P05771+Q05513+Q02156+P24723+Q15139+Q04759)", "test": "Effect on phosphorylation motif of protein kinase C in human MCF7 cells at 50 uM by immunoblotting analysis", "format": "cell-based"}, "MCF7 [12]": {"test_system": "MCF7", "test": "Antiproliferative activity against human MCF7 cells at 100 uM after 48 hrs by CellTiterGlo assay", "format": "functional"}, "MCF-10A [13]": {"test_system": "MCF-10A", "test": "Antiproliferative activity against human MCF10A cells at 100 uM after 48 hrs by CellTiterGlo assay", "format": "functional, cell-based"}, "MCF7 [14]": {"test_system": "MCF7", "test": "Reduction in cyclin D1 in PMA-stimulated human MCF7 cells at 100 uM by immunoblotting analysis", "format": "functional, cell-based"}, "[15]": {"molecular_target": "Ribosomal protein S6 kinase alpha-1 (Homo sapiens) (UniProt Q15418)", "test": "Inhibition of RSK in PMA-stimulated human MCF7 cells assessed as increase in phosphorylation of eEF2 at 100 uM by immunoblotting analysis", "format": "cell-based"}, "[16]": {"molecular_target": "Ribosomal protein S6 kinase alpha-1 (Homo sapiens) (UniProt Q15418)", "test": "Inhibition of RSK in PMA-stimulated human MCF7 cells assessed as decrease in intensity of band at 65 and 27 kDa at 100 uM by immunoblotting analysis", "format": "cell-based"}, "MCF7 [17]": {"test_system": "MCF7", "test": "Increase in phosphorylation motif of protein kinase A in human MCF7 cells at 100 uM by immunoblotting analysis", "format": "cell-based"}}, "note": "Calls of active or inactive are those of the source. The rule behind the calls is not given here."}
{"compound": "CC(=O)O[C@@H]1[C@@H](OC(C)=O)[C@@H](O)[C@H](Oc2c(-c3ccc(O)cc3)oc3cc(O)cc(O)c3c2=O)C[C@H]1C", "values": [{"measurement": "IC50", "setting": "[1]; read-out: IC50", "value": 0.27, "unit": "µM"}, {"measurement": "Activity", "setting": "MCF7 [2]", "value": "inactive"}, {"measurement": "inhibition", "setting": "[3]", "value": "inactive"}, {"measurement": "inhibition at 25 µM", "setting": "MCF7 [4]", "value": 60, "unit": "%"}, {"measurement": "Activity", "setting": "MCF7 [5]", "value": "inactive"}, {"measurement": "Activity", "setting": "MCF7 [6]", "value": "inactive"}, {"measurement": "Activity", "setting": "[7]", "value": "Active"}, {"measurement": "inhibition", "setting": "MCF-10A [8]", "value": "Active"}, {"measurement": "inhibition", "setting": "MCF7 [9]", "value": "Active"}, {"measurement": "inhibition", "setting": "MCF-10A [10]", "value": "Active"}, {"measurement": "Activity", "setting": "[11]", "value": "inactive"}]}
{"compound": "CC(=O)O[C@@H]1[C@@H](O)[C@@H](O)[C@H](Oc2c(-c3ccc(O)cc3)oc3cc(O)cc(O)c3c2=O)C[C@H]1C", "values": [{"measurement": "inhibition", "setting": "MCF7 [12]", "value": "Active"}, {"measurement": "IC50", "setting": "[1]; read-out: IC50", "value": 1.23, "unit": "µM"}, {"measurement": "inhibition", "setting": "MCF-10A [13]", "value": "Active"}]}
{"compound": "CC(=O)O[C@H]1[C@@H](O)[C@H](OC(C)=O)[C@@H](C)C[C@@H]1Oc1c(-c2ccc(O)cc2)oc2cc(O)cc(O)c2c1=O", "values": [{"measurement": "IC50", "setting": "[1]", "value": "Not Active"}]}
{"compound": "CC(=O)O[C@@H]1[C@@H](OC(C)=O)[C@@H](O)[C@H](Oc2c(-c3ccc(O)cc3)oc3cc(O)cc(O)c3c2=O)O[C@H]1C", "values": [{"measurement": "inhibition at 100 µM", "setting": "MCF7 [12]; MCF7, 48 h", "value": 60, "unit": "%"}, {"measurement": "inhibition", "setting": "MCF7 [14]", "value": "Active"}, {"measurement": "Activity", "setting": "[15]", "value": "Active"}, {"measurement": "inhibition", "setting": "[16]", "value": "Active"}, {"measurement": "Activity", "setting": "MCF7 [17]", "value": "Active"}]}
{"compound": "CC(=O)O[C@H]1[C@H](O)[C@H](O)[C@@H](Oc2c(-c3ccc(O)cc3)oc3cc(O)cc(O)c3c2=O)C[C@@H]1C", "values": [{"measurement": "inhibition", "setting": "MCF7 [12]", "value": "inactive"}, {"measurement": "IC50", "setting": "[1]", "value": "Not Active"}, {"measurement": "inhibition", "setting": "MCF-10A [13]", "value": "inactive"}]}
{"compound": "CC(=O)O[C@@H]1[C@@H](O)[C@@H](OC(C)=O)[C@H](Oc2c(-c3ccc(O)cc3)oc3cc(O)cc(O)c3c2=O)C[C@H]1C", "values": [{"measurement": "IC50", "setting": "[1]; read-out: IC50", "value": 1.6, "unit": "µM"}, {"measurement": "Activity", "setting": "MCF7 [2]", "value": "inactive"}, {"measurement": "inhibition", "setting": "[3]", "value": "inactive"}, {"measurement": "Activity", "setting": "MCF7 [5]", "value": "inactive"}, {"measurement": "Activity", "setting": "MCF7 [6]", "value": "inactive"}, {"measurement": "Activity", "setting": "[7]", "value": "Active"}, {"measurement": "inhibition", "setting": "MCF-10A [8]", "value": "Active"}, {"measurement": "inhibition", "setting": "MCF7 [9]", "value": "Active"}, {"measurement": "Activity", "setting": "[11]", "value": "inactive"}]}
{"compound": "CC(=O)O[C@@H]1[C@H](O)[C@@H](Oc2c(-c3ccc(O)cc3)oc3cc(O)cc(O)c3c2=O)C[C@H](C)[C@H]1OC(C)=O", "values": [{"measurement": "IC50", "setting": "[1]", "value": "Not Active"}]}
{"compound": "CC(=O)O[C@@H]1[C@H](O)[C@@H](Oc2c(-c3ccc(O)cc3)oc3cc(O)cc(O)c3c2=O)CC[C@H]1OC(C)=O", "values": [{"measurement": "IC50", "setting": "[1]", "value": "Not Active"}]}
{"compound": "CC(=O)O[C@H]1[C@@H](O)[C@H](Oc2c(-c3ccc(O)cc3)oc3cc(O)cc(O)c3c2=O)CC[C@@H]1OC(C)=O", "values": [{"measurement": "IC50", "setting": "[1]; read-out: IC50", "value": 8.93, "unit": "µM"}]}
